Measured values from patent publication US4298739A, “Novel carbostyril derivatives” (priority 1977, dated 1981).
Read-outs that look alike come from different tables or passages of the source.

Key:
[1] = biological target: T1, cyclic AMP phosphodiesterase (Oryctolagus cuniculus, UniProt G1ST54); assay: Obstructive action against cyclic AMP phosphodiesterase; assay type: biochemical, rabbit
T1 construct: the supernatant was collected to use it as a crude enzyme solution; from tissue; host or cells: rabbit platelets (from platelet-rich plasma), 100,000 xg supernatant, DEAE-cellulose fraction
T1 sequence (G1ST54 1-1128): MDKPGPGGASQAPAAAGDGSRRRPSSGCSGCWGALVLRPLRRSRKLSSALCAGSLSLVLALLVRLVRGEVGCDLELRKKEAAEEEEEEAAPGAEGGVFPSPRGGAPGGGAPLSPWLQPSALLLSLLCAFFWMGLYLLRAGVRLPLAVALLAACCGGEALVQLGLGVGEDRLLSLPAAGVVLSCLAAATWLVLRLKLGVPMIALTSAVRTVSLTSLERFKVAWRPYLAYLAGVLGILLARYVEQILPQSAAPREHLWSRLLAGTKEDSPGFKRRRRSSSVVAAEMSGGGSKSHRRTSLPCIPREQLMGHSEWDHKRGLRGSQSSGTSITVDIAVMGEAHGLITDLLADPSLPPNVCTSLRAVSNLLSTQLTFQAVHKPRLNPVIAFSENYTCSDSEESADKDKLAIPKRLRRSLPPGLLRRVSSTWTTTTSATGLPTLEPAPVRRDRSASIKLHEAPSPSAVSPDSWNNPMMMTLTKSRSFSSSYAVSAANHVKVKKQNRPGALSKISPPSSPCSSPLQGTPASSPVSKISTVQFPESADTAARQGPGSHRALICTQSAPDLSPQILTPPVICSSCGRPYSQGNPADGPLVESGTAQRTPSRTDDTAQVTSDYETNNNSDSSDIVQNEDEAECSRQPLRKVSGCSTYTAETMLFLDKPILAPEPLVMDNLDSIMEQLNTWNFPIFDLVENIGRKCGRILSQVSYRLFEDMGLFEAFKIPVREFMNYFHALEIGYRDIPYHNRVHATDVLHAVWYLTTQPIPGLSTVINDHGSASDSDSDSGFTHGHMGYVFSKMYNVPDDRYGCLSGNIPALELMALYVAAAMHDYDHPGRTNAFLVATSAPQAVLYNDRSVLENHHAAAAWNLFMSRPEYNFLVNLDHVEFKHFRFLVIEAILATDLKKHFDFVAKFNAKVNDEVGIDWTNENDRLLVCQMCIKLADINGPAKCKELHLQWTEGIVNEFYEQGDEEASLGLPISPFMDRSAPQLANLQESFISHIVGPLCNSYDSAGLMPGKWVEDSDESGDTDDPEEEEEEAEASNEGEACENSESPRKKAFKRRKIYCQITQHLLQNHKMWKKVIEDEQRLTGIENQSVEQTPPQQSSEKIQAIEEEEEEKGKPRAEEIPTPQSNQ
Procedure: The obstructive action against cyclic AMP phosphodiesterase was measured according to the activity measuring method described in "Biochimica et Biophysica Acta", Vol. 429, pp. 485-497 (1976) and "Biochemical Medicine", Vol. 10, pp. 301-311 (1974).
That is, for determining the obstructive activity against cyclic AMP phosphodiesterase, 10 ml of a solution obtained by adding 1 mmol of MgCl2 into 50 mmol of tris-hydrochloric acid buffer with pH 7.4 was added to the platelets obtained by further centrifuging the abovesaid rabbit PRP at 3,000 r.p.m. for 10 minutes, and the suspended platelets were ground by a Teflon potter type homogenizer. This was followed by two times of freezing and thawing treatment and 300-second fracturing with 200 watt supersonic waves. After additional 60-minute centrifugation with 100,000 xg, the supernatant was collected to use it as a crude enzyme solution.
10 Milliliters of this crude buffer solution was added to a 1.5×20 cm DEAE-cellulose column which has previously been buffered with 50 mmol of tris-acetate buffer (pH 6.0), followed by washing and elution with 30 ml of 50 mmol tris-acetate buffer, and this buffer solution was subjected to linear gradient elution with 0 to 0.5 moles of sodium acetate-tris-acetatebuffer. The flow rate was 0.5 ml/min, and 5 ml of each fraction was batched out. […] This fraction was used as cyclic AMP phosphodiesterase.
0.1 Milliliter of an aqueous solution of each test compound of a specified concentration was mixed with 40 mmol of tris-hydrochloric acid buffer (pH 8.0, containing 50 μg of cow serum albumin and 4 mmol of MgCl2) containing predetermined 1.0 μmol of cyclic AMP (tritium cyclic AMP), and 0.2 ml of this mixed solution was used as substrate solution.
0.2 Milliliter of the above-prepared cyclic AMP phosphodiesterase of a predetermined concentration was added to said substrate solution and the mixture was reaction at 30° C. for 20 minutes, producing tritium 5'-AMP from the tritium cyclic AMP.
The reaction system was then immersed in boiling water for 2 minutes to stop the reaction, and then this reaction solution was cooled in ice water and, for converting the produced tritium 5'-AMP into tritium adenosine, the solution was added with 0.05 ml (1 mg/ml) of snake poison as 5'-nucleotidase and reacted at 30° C. for 10 minutes. The whole amount of this reaction solution was then added to a cation exchange resin (AG 500 W×4, 200-400 meshes, manufactured by Bio-Rad Co., column size: 0.5×1.5 cm), and the produced tritium anodesine alone was allowed to combine, washed with 6 ml of distilled water and eluted with 1.5 ml of 3 N-ammonia water. The whole quantity of the elutant was added with 10 ml of a triton-toluene type scintillator and the produced tritium adenosine was measured by a liquid scintillation counter to determine the phosphodiesterase activity.
In this way, the phosphodiesterase activation value (Vs) of the test compounds of the respective concentrations was determined, and the phosphodiesterase obstruction rate (%) was determined from said activation value (Vs) and control value (Vc) (obtained from water not containing any test compound) from the following formula: [formula]

[2] = Acute toxicity test, oral administration to mice; assay type: in vivo; conditions: mouse, in vivo, Male mice
Procedure: The test compounds were administered orally to the mice and LD50 (mg/kg) of the compounds was determined.

[3] = pH 8, read-out: phosphodiesterase obstruction rate

| Compound | inhibition at 10 µM ([1]; 10^-5 mole, 1.0 μmol cyclic AMP, pH 8.0, 30° C., read-out: phosphodiesterase obstruction rate) | inhibition at 1 µM ([1]; 10^-6 mole, 1.0 μmol cyclic AMP, pH 8.0, 30° C., read-out: phosphodiesterase obstruction rate) | inhibition at 0.1 µM ([1]; 10^-7 mole, 1.0 μmol cyclic AMP, pH 8.0, 30° C., read-out: phosphodiesterase obstruction rate) | inhibition at 0.01 µM ([1]; 10^-8 mole, 1.0 μmol cyclic AMP, pH 8.0, 30° C., read-out: phosphodiesterase obstruction rate) | inhibition at 0.001 µM ([1]; 10^-9 mole, 1.0 μmol cyclic AMP, pH 8.0, 30° C., read-out: phosphodiesterase obstruction rate) | LD50 [2] | inhibition at 0.001 µM [1, 3] | inhibition at 0.01 µM [1, 3] | inhibition at 0.1 µM [1, 3] | inhibition at 1 µM [1, 3] | inhibition at 10 µM [1, 3] |
| --- | --- | --- | --- | --- | --- | --- | --- | --- | --- | --- | --- |
| CC(=O)OC1CCC(N(C)C(=O)CCCOc2ccc3[nH]c(=O)ccc3c2)CC1 (stereo not drawn) [compound 3, 6-{3-[N-Methyl-N-(4-acetyloxycyclohexyl)aminocarbonyl]propoxy}carbostyril] | 98.5% | 95.5% | 88.4% | 61.1% | 13.4% | > 1000 mg/kg | – | – | – | – | – |
| CN(C(=O)CCCOc1ccc2[nH]c(=O)ccc2c1)C1CCCCC1 [compound 16, 6-[3-(N-Methyl-N-cyclohexylaminocarbonyl)propoxy]carbostyril] | – | – | – | – | – | > 1000 mg/kg | 7.1% | 22.3% | 79.3% | 87.5% | 80.5% |
